# Reference: PMC6350621, “Small-molecules that covalently react with a human prolyl hydroxylase – towards activity modulation and substrate capture” (Chemical Communications (Cambridge, England), 2018)
# How the values were obtained:
# PHD2 = biological target: T1, PHD2 (Homo sapiens, UniProt Q9GZT9); assay: Denaturing ESI-MS of crosslinking with PHD2; assay type: binding
# T1 construct: PHD2_181–426 (hereafter PHD2); His6 (N, cleaved yes); made in house; host or cells: bacterial culture (2x TY, kanamycin, IPTG)
# Experimental: In contrast to the likely imine adducts formed with 1/2, the PHD2·Fe·3 covalent adduct was stable to the acidic conditions of denaturing MS. […] The crosslinking could be fitted by a one-site decay function (R^2 = 0.99, GraphPad Prism), consistent with a quasi intramolecular reaction of the PHD2·Fe·3 non-covalent species to give a covalent adduct (Fig. S5, ESI ^†).
# Fig. S7 Time-course analysis of crosslinking between PHD2 and 3. PHD2 (20 µM) was incubated (37 °C, 4 h) with FeSO4 (20 µM) and 3 (30 µM). Samples were taken at regular intervals, quenched by acidification and the ratio of covalent crosslinking analysed by ESI-MS under denaturing conditions. Above: overlaid deconvoluted mass spectra; Below: variation of crosslinking with time. Data represent mean intensities of repeats (n=3), error bars show 1 standard […]
# (§1) Fig. S8 Temperature dependence of the rate of crosslinking of 3 with PHD2. PHD2 (20 µM) was incubated with equimolar Fe(II) and 3 in buffer (50 mM Tris, 150 mM NaCl, pH 7.5) at 4, 20 and 37 °C. The ratio of crosslinking after 1, 2, and 4 h was determined by ESI-MS under denaturing conditions (n = 2), error bars represent 1 standard deviation.
# Fig. S9 Ratio of crosslinked PHD2.3 before evaluation of catalytic activity.
# 100 μM. FeSO4·7H2O was dissolved in 20 mM HCl at a concentration of 100 mM. This solution was then diluted with MilliQ purified water to give a final working concentration of 100 μM. The protein was mixed with the Fe(II) solution and the inhibitor solution to give final concentrations of 20 μM PHD2, 20 μM Fe(II), and 20 μM inhibitor. The resultant solution was incubated for the appropriate time (specified in the text) at 37 […]
# (5 min or 20 min) at 37 °C. After incubation, the samples were immediately analysed by ESI-MS.
# 1.1.2 Denaturing mass spectrometry
# Intact protein masses were obtaine by liquid chromatography-mass spectrometry (LC-MS) using a Waters LCT premier XE time-of-flight mass spectrometer interfaced with a Waters 1525u HPLC pump and Waters […]
# The protein sample (10 µM, 5 µl) was injected onto a Chromolith FastGradient RP-18 2x50mm Monolithic reverse phase HPLC column and eluted at 0.4 ml.min-1 using a gradient system from Solvent A (water, 0.1 % (v/v) formic acid) to Solvent B (acetonitrile, 0.1 % (v/v) formic acid) according to the following conditions:
# Time (Min) %A %B Flow Rate (ml.min-1)
# The eluent was transferred directly to the mass spectrometer. The following MS parameters were used:
# Capillary voltage – 3,000 V; Sample cone voltage – 50 V; Extraction cone voltage – 1V; Desolvation temperature – 250 °C; Source temperature – 100 °C; Cone gas flow – 100 l.hour-1; Desolvation gas flow (N2) – 830 l.hour-1. Data were processed with MassLynx™ v4.0 (Waters) and protein peaks were deconvoluted using the Maximum Entropy method (MaxEnt1).
# 1.1.3 Analysis of protein activity by peptide turnover assay using MALDI-MS detection2 PHD2 (20 µM), Fe(II) (20 µM) and the inhibitor (30 µM) in buffer (15 mM ammonium acetate, pH 7.5) were incubated for the appropriate time (specified in the text) at 37 °C. Subsequently, the enzyme (1.5 µL, final […]
# ascorbate (1 mM), 2-oxoglutarate (100 µM) and the respective inhibitor (30 µM) in buffer (50 mM Tris, 150 mM NaCl). In the positive control no inhibitor was added. The resultant mixture was incubated at 37 °C and samples ([…]) were taken at regular intervals and quenched by addition of 1% (v/v) aqueous formic acid ([…]). Samples were analysed using a MALDI micro MX mass spectrometer (Waters) in the reflectron positive ion mode. Data were processed using MassLynx v4.0. The yield of crosslinking was determined by comparison of the signal intensities for crosslinked and unmodified protein.
# 1.1.4 Analysis of protein activity by peptide turnover assay using the AlphaScreen™ 3 The assay consisted of three parts: pre-incubation with inhibitor, the PHD2 hydroxylation reaction, and incubation with the AlphaScreen™ bead mix.
# PHD2_181–402 = biological target: T2, PHD2_181–402 (Homo sapiens, UniProt Q9GZT9); assay: Non-denaturing ESI-MS crosslinking, C-terminal truncated PHD2; assay type: binding; settings: equimolar Fe(II) and compound, 3 h, 37 °C, 200 V
# T2 construct: C-terminal truncated PHD2 (PHD2_181–402); His6 (N, cleaved yes); made in house; host or cells: bacterial culture (2x TY, kanamycin, IPTG)
# Experimental: The site of crosslinking of 3 was investigated using protein variants. First, 3 was incubated with C-terminal truncated PHD2 (PHD2_181–402) and a loop deletion variant (deletion of residues 238–250, PHD2Δ). […] Thus, 3 was incubated with PHD2 constructs truncated at residues 402, 410, 414 and 418. […] Crosslinking experiments with PHD2 R411M implied that R411 is not directly involved in crosslinking (Fig. S11, ESI ^†).
# Fig. 3 (A) Non-denaturing ESI-MS data on the flexible loop truncated (top) and C-terminal tail tuncated (bottom) versions of PHD2 in the presence of equimolar Fe(II) and 3 (3 hour incubation, 37 °C. Cone voltage: 200 V). A = [PHD2Δ + Fe], B = [PHD2Δ + Fe + 3], C = [PHD2_181–402 + Fe], D = [PHD2_181–402 + Fe + 3]. (B) MS/MS spectrum of the trypsin derived peptide 403[…]411 crosslinked to 3 identified K408 as the site of crosslinking.
# as §1
# Fig. S9 Ratio of crosslinked PHD2.3 before evaluation of catalytic activity. Labelled peaks correspond to: (A): PHD2, […]
# T1 sequence (Q9GZT9 181-426): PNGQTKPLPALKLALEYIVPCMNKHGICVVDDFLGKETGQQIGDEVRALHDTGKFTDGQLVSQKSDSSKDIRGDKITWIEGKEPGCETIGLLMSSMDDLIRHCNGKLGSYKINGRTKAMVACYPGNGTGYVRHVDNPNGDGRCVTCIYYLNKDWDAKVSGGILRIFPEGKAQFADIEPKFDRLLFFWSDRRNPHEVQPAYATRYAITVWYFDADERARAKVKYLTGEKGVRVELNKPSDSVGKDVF
# T2 sequence (Q9GZT9 181-402): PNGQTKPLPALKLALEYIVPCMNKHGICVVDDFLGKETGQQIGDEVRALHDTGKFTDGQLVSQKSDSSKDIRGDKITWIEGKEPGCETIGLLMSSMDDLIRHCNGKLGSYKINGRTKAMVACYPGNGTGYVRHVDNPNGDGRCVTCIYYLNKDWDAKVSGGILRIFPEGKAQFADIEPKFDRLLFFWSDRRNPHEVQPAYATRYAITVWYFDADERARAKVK
smiles,measurement,setting,value
C=CC(=O)Nc1cccc(C(=O)NCC(=O)O)c1O [compound 3],conversion to crosslinked adduct at 4 °C,PHD2; 4 °C,little conversion
same,"extent of crosslinking, 0 h pre-incubation",PHD2; PHD2 pre-incubated with compound 0 h,0%
same,"extent of crosslinking, 1 h pre-incubation",PHD2; PHD2 pre-incubated with compound 1 h,50%
same,"extent of crosslinking, 2 h pre-incubation",PHD2; PHD2 pre-incubated with compound 2 h,66%
same,"extent of crosslinking, 4 h pre-incubation",PHD2; PHD2 pre-incubated with compound 4 h,90%
same,conversion to crosslinked PHD2·Fe·3 after 3 h,"PHD2; timecourse, 37 °C, 3 h, PHD2 20 µM, FeSO4 20 µM, compound 30 µM",near complete conversion
same,crosslinking with C-terminally truncated PHD2,PHD2_181–402,near completely absent
